Measurements as given in patent US10370401B2, “Substituted nucleosides, nucleotides and analogs thereof” (Alios BioPharma, Inc., priority 2013, dated 2019).
Read-outs that look alike come from different tables or passages of the source.

Legend:
Format in all cases: cell-based
[1] = Cytotoxicity in HeLa OHIO host cell line; conditions: human, HeLa-OHIO cells, n>5
[2] = test system: subgenomic HCV replicon; assay: HCV replicon assay (Huh-7, luciferase reporter); conditions: Hepatitis C virus; Huh-7 HCV replicon cells, luciferase, 72 hours; read-out: EC50
[3] = test system: HRV-89; assay: Human rhinovirus strain panel assay, HRV-89; conditions: Rhinovirus A, HRV89; HRV-89; HeLa-OHIO cells; read-out: EC50
[4] = test system: human rhinovirus 16 (HRV-16), coxasackie B3 (CVB3), enterovirus-68 (EV-68) and enterovirus-71 (EV-71); assay: Enterovirus assay (four viruses, CellTiter Glo)
[5] = test system: Human rhinovirus 1B; assay: Picornavirus assay (CPE, CellTiter-Glo, HeLa-OHIO cells); conditions: Rhinovirus A, 96 h; Human rhinovirus 1B, HeLa-OHIO cells, 4 d at 33° C.; read-out: EC50

**Q.** With `CC(C)OC(=O)OCOP(=O)(OCOC(=O)OC(C)C)OC[C@@]1(CF)O[C@@H](n2ccc(=O)[nH]c2=O)[C@](C)(O)[C@@H]1O` [Compound 44] as the compound, how does the CC50 [1] read?
**A.** > 100 µM

**Q.** And the EC50 [2]?
**A.** < 1 µM

**Q.** What about the EC50 [3] of the same compound?
**A.** 1 to 2 µM

**Q.** And the EC50 ([4]; HRV-16, CVB3, EV-68 (HeLa-OHIO cells) and EV-71 (RD cells), read-out: EC50 ranging (across four viruses))?
**A.** 0.38 to 2.52 µM

**Q.** What about the EC50 ([4]; mean over HRV-16, CVB3, EV-68 and EV-71, read-out: EC50 mean (across four viruses)) of the same compound?
**A.** 1.39 ± 1.14 µM

**Q.** And the EC50 [5]?
**A.** < 1 µM
